In ChEMBL document CHEMBL5241097, “Synthetically-tailored and nature-derived dual COX-2/5-LOX inhibitors: Structural aspects and SAR” (Eur J Med Chem, 2021):
Values belong to the compound of their own block, whether it stands above or below them.

Legend:
[1] = system: DU-145; assay: Antiproliferative activity against human DU-145 cells assessed as reduction in cell viability incubated for 48 hrs by MTT assay; type: functional, cell-based; conditions: DU-145, 48 h
[2] = biological target: T1, Prostaglandin G/H synthase 2 (Homo sapiens, UniProt P35354); assay: Inhibition of COX-2 (unknown origin)
T1 sequence (P35354 whole entry): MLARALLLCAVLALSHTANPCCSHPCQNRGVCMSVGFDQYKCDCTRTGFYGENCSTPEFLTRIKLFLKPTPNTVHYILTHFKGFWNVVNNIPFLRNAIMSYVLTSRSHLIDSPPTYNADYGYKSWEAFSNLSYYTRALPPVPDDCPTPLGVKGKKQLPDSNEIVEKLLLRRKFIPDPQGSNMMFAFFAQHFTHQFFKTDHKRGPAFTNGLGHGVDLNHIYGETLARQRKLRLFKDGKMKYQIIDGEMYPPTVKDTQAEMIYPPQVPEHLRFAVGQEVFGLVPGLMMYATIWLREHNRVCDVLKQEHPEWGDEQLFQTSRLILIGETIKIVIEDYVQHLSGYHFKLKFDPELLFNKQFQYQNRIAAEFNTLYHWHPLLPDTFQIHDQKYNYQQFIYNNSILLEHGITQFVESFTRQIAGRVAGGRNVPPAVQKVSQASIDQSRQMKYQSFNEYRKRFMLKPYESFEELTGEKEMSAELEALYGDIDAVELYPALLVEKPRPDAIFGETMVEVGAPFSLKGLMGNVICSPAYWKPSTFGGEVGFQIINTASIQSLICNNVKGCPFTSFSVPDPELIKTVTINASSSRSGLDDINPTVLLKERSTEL

[3] = biological target: T1, Prostaglandin G/H synthase 2; assay: Inhibition of COX-2 (unknown origin) using arachidonic acid as substrate preincubated for 15 mins followed by substrate addition by colorimetric assay
[4] = Inhibition of soybean 5-LOX using linoleic acid as substrate by spectrophotometric analysis; set-up: species or system Glycine max
[5] = biological target: T1, Prostaglandin G/H synthase 2; assay: Inhibition of recombinant human COX-2 using arachidonic acid as substrate preincubated for 5 mins followed by substrate addition and measured after 20 mins by ELISA
[6] = biological target: T2, Polyunsaturated fatty acid 5-lipoxygenase (Homo sapiens, UniProt P09917); assay: Inhibition of recombinant human 5-LOX using arachidonic acid as substrate preincubated for 10 mins followed by substrate addition and measured after 10 mins by ELISA
T2 sequence (P09917 whole entry): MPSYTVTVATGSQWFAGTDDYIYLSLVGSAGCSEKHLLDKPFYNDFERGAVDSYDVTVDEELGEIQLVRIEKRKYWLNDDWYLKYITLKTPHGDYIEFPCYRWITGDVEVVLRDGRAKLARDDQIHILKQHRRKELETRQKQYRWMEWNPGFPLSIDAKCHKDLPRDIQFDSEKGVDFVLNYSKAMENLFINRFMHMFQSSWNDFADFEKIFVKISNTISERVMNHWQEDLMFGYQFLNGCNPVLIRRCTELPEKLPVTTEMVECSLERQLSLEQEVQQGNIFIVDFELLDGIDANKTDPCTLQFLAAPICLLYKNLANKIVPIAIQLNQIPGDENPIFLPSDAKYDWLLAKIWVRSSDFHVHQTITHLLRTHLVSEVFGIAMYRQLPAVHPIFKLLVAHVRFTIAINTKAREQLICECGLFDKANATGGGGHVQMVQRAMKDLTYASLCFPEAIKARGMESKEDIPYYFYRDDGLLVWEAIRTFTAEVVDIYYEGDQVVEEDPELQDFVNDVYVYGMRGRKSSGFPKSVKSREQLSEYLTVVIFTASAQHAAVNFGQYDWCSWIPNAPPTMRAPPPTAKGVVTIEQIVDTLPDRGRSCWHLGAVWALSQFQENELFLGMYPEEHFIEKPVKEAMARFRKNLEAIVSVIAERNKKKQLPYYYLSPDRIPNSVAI

[7] = system: Rattus norvegicus; assay: Antiinflammatory activity in carragenan-induced paw edema rat model assessed as reduction in edema thickness at 28 microg/kg, ip and measured after 4 hrs by digital Vernier caliper analysis; type: functional; set-up: scale not given: the % may be the effect or the level left; conditions: dose 28 µg/kg
[8] = biological target: T1, Prostaglandin G/H synthase 2; assay: Inhibition of recombinant human COX-2 by enzyme immune assay
[9] = biological target: T2, Polyunsaturated fatty acid 5-lipoxygenase; assay: Inhibition of 5-LOX (unknown origin) using linoleic acid as substrate preincubated for 5 mins followed by substrate addition by spectrophotometric assay
[10] = organism: Homo sapiens; assay: Selectivity index, ratio of IC50 for inhibition of human COX1 to IC50 for inhibition of human COX2
[11] = biological target: T1, Prostaglandin G/H synthase 2; assay: Inhibition of COX-2 (unknown origin) using arachidonic acid as substrate preincubated for 5 mins followed by substrate addition by colorimetric assay
[12] = biological target: T2, Polyunsaturated fatty acid 5-lipoxygenase; assay: Inhibition of 5-LOX (unknown origin) by colorimetric assay
[13] = system: Rattus norvegicus; assay: Antiinflammatory activity in Wistar rat carragenan-induced paw edema model assessed as reduction in edema thickness at 50 mg/kg, po and measured after 2 hrs; type: functional; set-up: scale not given: the % may be the effect or the level left
[14] = biological target: T2, Polyunsaturated fatty acid 5-lipoxygenase; assay: Inhibition of recombinant human 5-LOX using arachidonic acid as substrate incubated for 10 mins by spectrophotometric analysis
[15] = biological target: T1, Prostaglandin G/H synthase 2; assay: Inhibition of recombinant human COX-2 using arachidonic acid as substrate preincubated for 10 mins followed by substrate addition and measured after 2 mins by Ellman's reagent based ELISA
[16] = biological target: T2, Polyunsaturated fatty acid 5-lipoxygenase; assay: Inhibition of 5-LOX (unknown origin) by enzyme immune assay
[17] = biological target: T1, Prostaglandin G/H synthase 2; assay: Inhibition of recombinant human COX-2 using arachidonic acid as substrate preincubated for 10 mins followed by substrate addition and measured after 2 mins by ELISA
[18] = biological target: T2, Polyunsaturated fatty acid 5-lipoxygenase; assay: Inhibition of 5-LOX (unknown origin) by fluorometric analysis
[19] = biological target: T3, Prostaglandin G/H synthase 1 (Homo sapiens, UniProt P23219); assay: Inhibition of recombinant human COX-1 using arachidonic acid as substrate by ELISA
T3 sequence (P23219 whole entry): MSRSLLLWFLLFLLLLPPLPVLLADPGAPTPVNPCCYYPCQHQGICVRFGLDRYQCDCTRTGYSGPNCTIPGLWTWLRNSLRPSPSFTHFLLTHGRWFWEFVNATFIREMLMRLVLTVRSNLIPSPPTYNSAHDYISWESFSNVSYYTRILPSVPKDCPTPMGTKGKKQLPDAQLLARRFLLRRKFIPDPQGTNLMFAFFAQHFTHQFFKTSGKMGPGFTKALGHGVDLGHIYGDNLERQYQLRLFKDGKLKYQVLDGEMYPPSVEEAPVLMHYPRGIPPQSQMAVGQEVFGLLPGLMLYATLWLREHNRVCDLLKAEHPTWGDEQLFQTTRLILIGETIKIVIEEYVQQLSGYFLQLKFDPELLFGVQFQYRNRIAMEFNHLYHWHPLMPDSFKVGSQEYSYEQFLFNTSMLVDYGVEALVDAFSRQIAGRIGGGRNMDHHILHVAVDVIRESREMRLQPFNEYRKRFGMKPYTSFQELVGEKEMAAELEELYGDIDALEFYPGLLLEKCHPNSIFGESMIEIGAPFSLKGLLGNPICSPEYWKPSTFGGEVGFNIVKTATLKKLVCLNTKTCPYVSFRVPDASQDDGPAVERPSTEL

[20] = biological target: T1, Prostaglandin G/H synthase 2; assay: Inhibition of recombinant human COX-2 using arachidonic acid as substrate by ELISA
[21] = Selectivity index, ratio IC50 for inhibition of ovine COX-1 to IC50 for inhibition of recombinant human COX-2
[22] = system: Rattus norvegicus; assay: Antiinflammatory activity in po dosed Sprague-Dawley rat assessed as reduction in carragenan-induced paw edema and measured after 4 hrs by vernier caliper method; type: functional; set-up: scale not given: the % may be the effect or the level left
[23] = system: Rattus norvegicus; assay: Antiinflammatory activity in Wistar rat assessed as reduction in carragenan-induced paw edema at 10 mg/kg, po for 7 days followed by carrageenan stimulation and measured upto 6 hrs by vernier caliper method; type: functional; set-up: scale not given: the % may be the effect or the level left; conditions: time 7 day
[24] = biological target: T3, Prostaglandin G/H synthase 1; assay: Inhibition of human COX-1 using arachidonic acid as substrate preincubated for 10 mins followed by substrate addition and measured after 2 mins by ELISA
[25] = Inhibition of potato 5-LOX using linoleic acid as substrate preincubated for 5 mins followed by substrate addition and measured after 5 mins by spectrophotometric assay; set-up: species or system Solanum tuberosum
[26] = biological target: T1, Prostaglandin G/H synthase 2; assay: Inhibition of COX-2 (unknown origin) by colorimetric method
[27] = biological target: T2, Polyunsaturated fatty acid 5-lipoxygenase; assay: Inhibition of 5-LOX (unknown origin)

Compound: COc1cc([C@@H]2c3cc4c(cc3[C@@H](O[C@@H]3O[C@@H]5CO[C@@H](C)O[C@H]5[C@H](O)[C@H]3O)[C@H]3COC(=O)[C@H]23)OCO4)cc(OC)c1O [ETOPOSIDE]
- IC50 [1]: 9.8 µM

Compound: O=C(O)c1ccc(O)c(O)c1 [PROTOCATECHUIC ACID]
- IC50 [2]: 25.4 µM

Compound: COc1cc(O)cc(/C=C/c2ccc(O)cc2)c1
- IC50 [5]: 0.25 µM
- IC50 [6]: 4.01 µM

Compound: O=C(NC1CCCCC1)c1cc(NCc2cc(O)ccc2O)ccc1O
- Activity [7]: 114.12%
- IC50 [8]: 0.1 µM

Compound: Oc1cc(O)cc(/C=C/c2ccc(O)c(O)c2)c1 [PICEATANNOL]
- IC50 [6]: 0.39 µM

Compound: C=C1CCCC2C1(C)CCC(C)C2(C)CCC1=CC(=O)OC1O (stereo not drawn)
- IC50 [14]: 12.7 µM
- IC50 [15]: 8.49 µM

Compound: CC(C)NC(=O)c1cc(N)ccc1O
- IC50 [16]: 3.41 µM

Compound: CCc1cc(OC)c(OC)c(OC)c1
- IC50 [17]: 0.18 µM
- Ratio IC50 [10]: 668

Compound: COc1ccc(/C=c2\c(=O)[nH]n3c(=O)c4ccccc4nc23)cc1OC
- IC50 [18]: 1 µM
- IC50 [19]: 0.684 µM
- IC50 [20]: 0.284 µM

Compound: O=C(NC1CCCCC1)c1cc(/N=C/c2cc(O)ccc2O)ccc1O
- IC50 [8]: 0.11 µM
- Ratio IC50 [21]: 120
- IC50 [16]: 11.3 µM

Compound: Cc1ccc(-c2cc(C(F)(F)F)nn2-c2ccc(S(N)(=O)=O)cc2)cc1 [CELECOXIB]
- Activity [22]: 73.56%
- Activity [13]: 15.7%

Compound: Nc1ccc(O)c(C(=O)NC2CCCCC2)c1
- Activity [7]: 102%

Compound: O=Cc1ccc(O)c(O)c1 [PROTOCATECHUALDEHYDE]
- IC50 [2]: 19.7 µM

Now from value to compound, other results behind:

- IC50 [3]: 6.8 µM
- IC50 [4]: 6.4 µM
Compound: NC(=O)c1ccc(-c2nc(CSc3nc4ccccc4s3)no2)cc1

- IC50 [3]: 5 µM
- IC50 [4]: 5.6 µM
Compound: O=C(c1ccc(-c2nc(CSc3nc4ccccc4s3)no2)cc1)N1CCOCC1

- IC50 [9]: 5.91 µM
- Ratio IC50 [10]: 7.61
Compound: Cc1c(C(=O)N2CCN(c3ccccc3)CC2)nc2ccc(Cl)cc2c1O

- IC50 [11]: 0.77 µM
- IC50 [12]: 0.53 µM
Compound: CC1=NN(c2ccc(S(N)(=O)=O)cc2)C(=O)/C1=N/Nc1ccc(C(=O)O)cc1
- Activity [13]: 72.72%

- IC50 [3]: 7.6 µM
- IC50 [4]: 5.1 µM
Compound: CON(C)C(=O)c1ccc(-c2nc(CSc3nc4ccccc4s3)no2)cc1

- IC50 [18]: 0.6 µM
- IC50 [19]: 1.48 µM
- IC50 [20]: 0.488 µM
Compound: COc1cccc(/C=c2\c(=O)[nH]n3c(=O)c4ccccc4nc23)c1

- IC50 [8]: 0.1 µM
- Ratio IC50 [21]: 145
- IC50 [16]: 11.9 µM
Compound: CCCCCCNC(=O)c1cc(NCc2cc(O)ccc2O)ccc1O
- Activity [7]: 40.05%

- IC50 [24]: 5.55 µM
- Ratio IC50 [10]: 61.7
- IC50 [25]: 0.38 µM
Compound: Cc1ccc(-c2nc(N(c3ccccc3)c3ccccc3)sc2C(=O)c2cccs2)cc1
- Activity [23]: 60.82%

- IC50 [26]: 5.45 µM
- IC50 [27]: 4.33 µM
- Ratio IC50 [10]: 8.37
Compound: N#Cc1c(-c2ccc(Cl)cc2)csc1NC(=O)CN1CCOCC1
- Activity [22]: 58.77%
